Article PMC4138103 (PLoS ONE, 2014)
Where two headings read alike, the source gives them in different places.

Key:
[1] = biological target: T1, human TTR (Homo sapiens, UniProt P02766); details: ref Hamers et al. 2011, cited from earlier work
T1 construct: purchased Sigma Aldrich

[2] = rats; cited from earlier work
[3] = Margin of exposure calculations; parameters: species or system human; details: for MoE, Liver p53 / MoE, Spontanous locomotor activity: females; for MoE, Liver retinol / MoE, Serum chlolesterol / MoE, Serum thyroxine / MoE, Serum triglycerids: males
Description: They include values from the WHO mother's milk survey in 2001–2002 [1], [2], adipose tissue from the Finnish general population in 1997–1999 [83] and, plasma from the Baltic Sea fisherman cohort in 1997–1999 [41] and placenta from a Danish–Finnish joint prospective cohort in 1997–2001 [40]. WHO has established uncertainty factors (UF) for estimating tolerable intake levels of environmental chemicals. As rat and human tissue concentration data are used no interspecies toxicokinetic UF is needed. A toxicodynamic factor of 2.5 is applied to cover the interspecies variability and a factor of 10 to cover the inter-individual variability in humans. Thus, the UF of 25 is considered adequate for human health endpoints of NDL-PCBs.

[4] = tested on: Sprague-Dawley rats; test: Histopathology; assay type: in vivo, Rattus norvegicus; details: for Emax: Rattus norvegicus; for Large thyroid follicles (%), CED / Large thyroid follicles (%), CED-L: total dose based; for Adrenal zona fasciculata hypertrophy, CED: semi-quantitative staging; for Pituitary frontal lobe vacuoles or extracellular deposits, incidence: top dose (1700 mg/kg bw)
Description: After fixation, the samples were dehydrated, paraffinized and embedded according to standard sampling and trimming procedures. Sections of 4 µm were stained with hematoxylin and eosin in an automated way. Microscopic observations were done by initial unblinded comparison of control and top dose samples. […] Slide reading for such affected endpoints was refined by blind and/or semi-quantitative scoring.
For immunohistochemistry of TSH and ACTH in the pituitary routine sections were deparaffinized in a graded series of xylol/ethanol. Endogenous peroxidase activity was blocked in a 1/1 methanol/distilled water solution with 1/100 0.3% H2O2 added. […] Subsequent 60 min incubation with purified rabbit polyclonal IgG against rat TSH (Biogenesis), 1/1600 dilution, or against ACTH (Phoenix Pharmaceuticals), 1/1000 dilution, was followed by incubation with a biotinylated anti-rabbit second antibody in the case of TSH (1/200, 30 min; Vector) and avidin-biotin complex (Vector) according to instructions of the manufacturer; both antisera were diluted in the 1% blocking reagent solution, or with a peroxidase conjugated anti-rabbit second antibody (DAKO) in the case of ACTH. Immunostaining was completed with incubation with a standard diaminobenzidine (Sigma) solution for 5 min and counterstaining with hematoxylin (Mayer procedure). Immunostaining was evaluated by comparing the quantity and staining intensity of positive cells between control and high dose samples.
Data were also analyzed using the BMD method, which is based on dose-response modeling of the full data set using a nested family of exponential and Hill models. The analyses were done on data of males and females combined, using sex as a covariate. […] In that case, different Critical Effect Doses (CEDs) and CEDs at the lowest bound of the confidence interval (CED-L) were generated for each sex. If no difference between sexes is detected, a CED and CED-Ls for the combined data is generated. However, this was also done if the curve fits are close, and separate analyses for males and females were then performed manually. CEDs and CED-Ls were calculated at the predefined Critical Effect Size (CES) of 5% (EFSA standard) or 10%.

[5] = tested on: Sprague-Dawley rats; parameters: method as in Roos et al., 2011; details: group mean, ref Roos et al., 2011, cited from earlier work
[6] = Worst case: the most exposed fisherman
[7] = human cohort Baltic Sea fishermen
[8] = human cohort General population (Finland)
[9] = human cohort Placenta (Denmark)
[10] = human cohort Placenta (Finland)
[11] = F, CES 5%, model E4, adipose tissue concentration based
[12] = F, CES 10%, model E4, adipose tissue concentration based

Compound: Clc1cc(Cl)c(-c2cc(Cl)c(Cl)c(Cl)c2Cl)cc1Cl [PCB 180, 2,2′,3′,4,4′,5,5′-heptachlorobiphenyl]
- T4 displacement, Pilot experiment ([1]; @10000 nM): 27% T4 displacement @10000 nM
- IC50 ([1]; TTR binding): > 15 µM
- Elimination half-life [2]: 90 days
- MoE, Liver p53 [3, 6]: 25
- MoE, Spontanous locomotor activity [3, 6]: 0.438
- MoE, Liver p53 [3, 7]: 65.2
- MoE, Spontanous locomotor activity [3, 7]: 1.14
- MoE, Liver p53 [3, 8]: 316
- MoE, Spontanous locomotor activity [3, 8]: 5.53
- MoE, Liver p53 ([3]; human cohort Mother's milk): 655
- MoE, Spontanous locomotor activity ([3]; human cohort Mother's milk): 11.5
- MoE, Liver p53 [3, 9]: 3109
- MoE, Spontanous locomotor activity [3, 9]: 54.4
- MoE, Liver p53 [3, 10]: 5396
- MoE, Spontanous locomotor activity [3, 10]: 94.4
- MoE, Liver retinol [3, 6]: 15.7
- MoE, Serum chlolesterol [3, 6]: 76.2
- MoE, Serum thyroxine [3, 6]: 97.5
- MoE, Serum triglycerids [3, 6]: 6.05
- MoE, Liver retinol [3, 7]: 40.9
- MoE, Serum chlolesterol [3, 7]: 199
- MoE, Serum thyroxine [3, 7]: 254
- MoE, Serum triglycerids [3, 7]: 15.8
- MoE, Liver retinol [3, 8]: 198
- MoE, Serum chlolesterol [3, 8]: 963
- MoE, Serum thyroxine [3, 8]: 1233
- MoE, Serum triglycerids [3, 8]: 76.5
- MoE, Liver retinol ([3]; human cohort Mother's milk): 410
- MoE, Serum chlolesterol ([3]; human cohort Mother's milk): 1996
- MoE, Serum thyroxine ([3]; human cohort Mother's milk): 2555
- MoE, Serum triglycerids ([3]; human cohort Mother's milk): 159
- MoE, Liver retinol [3, 9]: 1948
- MoE, Serum chlolesterol [3, 9]: 9472
- MoE, Serum thyroxine [3, 9]: 12124
- MoE, Serum triglycerids [3, 9]: 752
- MoE, Liver retinol [3, 10]: 3381
- MoE, Serum chlolesterol [3, 10]: 16439
- MoE, Serum thyroxine [3, 10]: 21043
- MoE, Serum triglycerids [3, 10]: 1306
- CED, Large thyroid follicles (%) [4, 11]: 105 µg/g lipid
- CED-L, Large thyroid follicles (%) [4, 11]: 52.7 µg/g lipid
- CED, Large thyroid follicles (%) [4, 12]: 218 µg/g lipid
- CED-L, Large thyroid follicles (%) [4, 12]: 110 µg/g lipid
- Emax ([4]; F, model E4, controls vs high dose according to the fitted model, read-out: Maximum response, Large thyroid follicles (%)): -70.9%
- Emax ([4]; females, controls vs high dose, fitted model, read-out: Large thyroid follicles (%), Maximum response): -71%
- Hyperemia of inner zones of adrenal cortex, CEDL ([4]; females): 2526 mg/kg bw
- Activation of adrenal zona fasciculata, difference in CED values between genders ([4]; females more sensitive, semi-quantitative evaluation): 297 fold
- Large thyroid follicles (%), CED ([4]; females, CES 5%): 22.6 mg/kg bw
- Large thyroid follicles (%), CED-L ([4]; females, CES 5%): 11.6 mg/kg bw
- Large thyroid follicles (%), CED ([4]; females, CES 10%): 131 mg/kg bw
- Large thyroid follicles (%), CED-L ([4]; females, CES 10%): 81.0 mg/kg bw
- Area of large thyroid follicles, CED ([4]; females, adipose tissue concentration based): 105 µg/g lipid
- Thyroid follicle depletion in females, CED (Fig. 7C) ([4]; females, legend says CES 5%): 131
- Thyroid follicle depletion in females, CED-L05 (Fig. 7C) ([4]; females, legend says CES 5%): 80.5
- Thyroid follicle depletion in females, CED-L95 (Fig. 7C) ([4]; females, legend says CES 5%): 213.3
- Adrenal zona fasciculata hypertrophy, CED ([4]; females): 2.0 mg/kg bw
- Pituitary frontal lobe vacuoles or extracellular deposits, incidence ([4]; females): 2/5
- Adrenal zona fasciculata hypertrophy, CED ([4]; males): 594 mg/kg bw
- Pituitary frontal lobe vacuoles or extracellular deposits, incidence ([4]; males): 4/5
- Body weight ([5]; females, total dose 3 mg/kg bw): 215 g
- Body weight ([5]; females, total dose 10 mg/kg bw): 210 g
- Body weight ([5]; females, total dose 30 mg/kg bw): 213 g
- Body weight ([5]; females, total dose 100 mg/kg bw): 211 g
- Body weight ([5]; females, total dose 300 mg/kg bw): 212 g
- Body weight ([5]; females, total dose 1000 mg/kg bw): 213 g
- Body weight ([5]; females, total dose 1700 mg/kg bw): 208 g
- Body weight ([5]; males, total dose 3 mg/kg bw): 306 g
- Body weight ([5]; males, total dose 10 mg/kg bw): 321 g
- Body weight ([5]; males, total dose 30 mg/kg bw): 324 g
- Body weight ([5]; males, total dose 100 mg/kg bw): 322 g
- Body weight ([5]; males, total dose 300 mg/kg bw): 325 g
- Body weight ([5]; males, total dose 1000 mg/kg bw): 315 g
- Body weight ([5]; males, total dose 1700 mg/kg bw): 310 g
